This note sets out measurements from patent publication EP0590024B1, “TOPICAL COMPOSITION ENHANCING HEALING OF HERPES LESIONS” (VIRO-TEX CORPORATION, priority 1991, dated 1993).

The structures appear in SMILES notation. Structures can show the parent of a compound that is named as a salt.

The subject of data set [1] is HSV-2. Briefly: Inactivation studies: direct inactivation of HSV-2. Conditions: for concentrations tested at which the compound does not directly inactivate HSV-2: 30 minutes at room temperature, up to highest concentration tested. Further details: species or system herpes simplex virus type-2. On the procedure:
(§1) A clinical isolate from a genital lesion of Herpes simplex virus, type (HSV-2), was used.
(§2) Stocks of viruses were grown by infecting MRC-5 cells at multiplicity of 0.01 plaque forming units (PFU) per cell and harvested in maintenance medium. Virus was harvested by three cycles of freezing at -70°C and thawing, followed by centrifugation at 1000 x g at 4°C for 15 minutes to remove cell debris. Resulting virus stocks were aliquoted and frozen at -70°C.
To determine if a test compound directly inactivates HSV-2, 0.5 ml of serial dilutions of the compound to be tested was mixed with 0.5 ml of stock HSV-2 (titer = […]) and incubated at room temperature for 30 minutes. After 30 minutes, the compound-virus mixture was diluted 10,000 fold in maintenance medium and virus recovery was determined by inoculating MRC-5 cells. The cells were graded for cytopathic effect after 24 hr, 48 hr, and 72 hr.

Data set [2] deals with HSV-2. The data set is described as follows: Antiviral studies: inhibition of HSV-2 replication in MRC-5 cells (virus yield). In kind it is cell-based, herpes simplex virus type-2. On the procedure: as §1, §2
Antiviral activity, i.e., the ability of the compound to inhibit infection or replication of virus in cells, was measured by infecting confluent monolayers of MRC-5 cells in 12 x 100 mm culture tubes at a multiplicity of infection (MOI) of 3.0 plaque forming units (PFU) per cell of HSV-2 by removing the maintenance medium, washing the monolayers three times with phosphate buffered saline (PBS), and adding 0.1 ml of […] suspended in PBS. The multiplicity of infection was calculated by counting the number of viable cells in a duplicate tube and diluting the stock virus to produce a viral inoculum in a volume of 0.1 ml which contained three times the PFUs as the number of cells counted. After a 60 minute absorption period, the inoculum was removed and 4 mls of test compound at appropriate concentrations in maintenance medium or maintenance medium (control) was added. The tubes were incubated at 37°C for an additional 23 hours. At 24 hours post-infection, the medium was removed and the monolayers were washed twice with PBS and frozen and thawed 3 times in 1 ml of maintenance medium. Virus yields were determined by serial end-point titrations in 96-well tissue culture plates containing MRC-5 cells. All experiments were tested in triplicate. 50% end-points were calculated and titers were expressed in TCID 50 units. Antiviral effect was determined by subtracting the difference between the TCID 50s of the test compound and from the TCID 50s of HSV-2 virus stock titrated in the same experiment and calculated in percentages.

Another data set relates to MRC-5 cells. Conditions: for concentrations exhibiting significant cytotoxicity: 1440 min.
In another data set the test system is MS strain of HSV-2. Briefly: Primary genital HSV-2 infection of guinea pigs, topical treatment. In kind it is in vivo. Conditions: ACV as 5%. On the procedure:
The antiviral activity of several compounds in a primary genital HSV-2 infection of guinea pigs was tested. The experiments were placebo-controlled and uninfected animals were treated with each of the preparations to assess skin irritation. Groups treated with 5% Acyclovir were included as positive controls.
Virus and Viral Inoculation. The MS strain of HSV-2 was utilized to infect animals. Female Hartley strain guinea pigs, Charles River Breeding Laboratories, Kingston, NY, weighing 250 to 300 g were inoculated intravaginally with 1.4 x 10^5 plaque forming units of HSV-2 one hour after being swabbed for the removal of vaginal secretions.
Treatment of Guinea Pigs. Groups of ten infected guinea pigs were treated topically, 0.1 ml intravaginally and 0.1 ml on external genital skin, three times daily, approximately every eight hours, for seven days, beginning either 6 hr or 48 hr after HSV inoculation. Groups of three uninfected animals were used to assess toxicity of each preparation.
Simple Collection and Virus Assays. To determine the effect of treatment on vaginal virus replication, swabs of vaginal secretions were obtained on days 1, 3, 5, 7 and 10 after HSV-2 inoculation, placed in a tube containing 2.0 ml of media, vortexed and frozen at -70°C until titrated for HSV-2. When all samples were collected, they were thawed, diluted serially and HSV-2 titers determined using a microtiter CPE assay in rabbit kidney cells. Mean peak virus titers and areas under the virus titer-day curves were calculated and analyzed.
Scoring of External Genital Lesions. To determine the effect of therapy on the development and spread of external genital lesions, lesion severity was scored on a 0-5+ scale through the primary infection (21 days). Mean peak lesion scores and the area under the lesion score-day curves were calculated and analyzed.
Evaluation of Efficacy. The number of animals infected over the number inoculated, lesion score-day areas and virus titer-day areas under the curve, peak lesion scores and peak virus titers between untreated and placebo-treated or placebo-treated and drug-treated animals were compared using the Mann-Whitney U rank sum test. A p-value of 0.05 or less was considered significant.
The base formulation is as defined for the preferred embodiment of the composition for enhancing […] of viral lesions, but without SLS or anesthetic. Acyclovir (ACV) was used as a positive control (i.e., having antiviral activity). Placebo (PBS) treated animals were compared with an untreated control animal. 2A was compared with the untreated animals and placebo-treated animals. ACV groups were compared to the placebo-treated group. All others were compared to 2A.

The test system of the next data set is Vero cells. Briefly: Cytotoxicity assay in Vero cells. The format is cell-based, green monkey. On the procedure:
A continuous line of human embryo lung cells (MRC-5) were grown in Eagle's minimal essential medium (MEM) in Earle's salts supplemented with 2 mM L-glutamine, […] gentamicin, 0.25 mg/ml amphotericin B (Fungisone) ad 10% heat-inactivated fetal calf serum (growth medium). Cells were grown at 37°C in a humidified 5% CO2 atmosphere or in closed flasks. Maintenance medium was the same basic composition, except the concentration of fetal calf serum was 2%. Vero cells (continuous line of green monkey kidney cells) were grown in the same manner as MRC-5 cells.
Cytotoxicity assays were performed in MRC-5 cells and in Vero cells. The test compound was dissolved in maintenance medium at selected concentrations and inoculated onto MRC-5 or Vero cells in 96 well tissue culture plates. Each concentration was inoculated in triplicate. The plates were incubated at 37°C in 5% CO2 and graded for cytotoxicity at 24,48 and 72 hours after inoculation. The highest concentration of compound showing 50% cytotoxicity after 72 hours was designated the end point.

In the case of `O=C(O)c1cccnc1` [Niacin], the “concentrations tested at which the compound does not directly inactivate HSV-2” value in the data set with HSV-2 [1] was “up to 0.25%”. In addition, the “inhibition of the replication of HSV-2 / antiviral activity” value with HSV-2 [2] (concentration not given) is on record as “does not inhibit”. For the same compound, the “concentrations non-toxic in MRC-5 cells” value in the data set on MRC-5 cells (human) was not above 0.25%.
As for `Nc1nc2c(ncn2COCCO)c(=O)[nH]1` [ACV, Acyclovir], the “virus titer-day area under the curve (AUC)” value in the data set with MS strain of HSV-2 (therapy given 6 hr after viral inoculation, vs placebo, p 0.05) is “significantly reduced”. In the data set on MS strain of HSV-2 (therapy given 6 hr after viral inoculation, vs placebo, p <0.01), the “mean peak virus titer” value is given as “significantly reduced”. For the same compound, the lesion development entry in the data set with MS strain of HSV-2 (therapy initiated 6 hr following HSV-2 inoculation, P <0.05 or less) was “significantly decreased”. For the same compound, the “mean peak lesion score” value in the data set on MS strain of HSV-2 (therapy initiated 6 hr following inoculation, P <0.001) is on record as “reduced”.
Regarding `CCCCNc1ccc(C(=O)OCCN(C)C)cc1` [Tetracaine HCl], the “significant toxicity in Vero cells” value with Vero cells (Vero cells, result in words) is “not in Vero cells”. Besides, in the data set on HSV-2 [1], the “concentrations tested at which the compound does not directly inactivate HSV-2” value was “up to 2%”. Further, the “inhibition of the replication of HSV-2” value in the data set on HSV-2 [2] (0.25%) was “partially inhibited”. Also, the “inhibition of the replication of HSV-2 / antiviral activity” value in the data set with HSV-2 [2] (0.5%, HCl) is given as “partially inhibited”; in the data set on HSV-2 [2] (0.5%, listed as tetracaine HCl, HCl), “some antiviral activity”. Moreover, in the data set with MRC-5 cells (human), the “concentrations exhibiting significant cytotoxicity” value is reported as “above 0.03%”.
Turning to `CCCCCCCCCCCCOS(=O)(=O)O` [SLS, sodium lauryl (or dodecyl) sulfate], in the data set with HSV-2 [1] (concentration of 0.00032%), the “direct inactivation of HSV-2” value is recorded as “No inactivation”. The “inhibition of viral replication” value in the data set with HSV-2 [2] (0.0013%) and in the data set on HSV-2 [2] (0.0025%) was “does not inhibit” throughout. For the same compound, in the data set with MRC-5 cells (MRC-5 cells, time not stated), the “concentrations highly toxic to MRC-5 cells” value was “above 0.0025%”.
For `CCN(CC)CCOC(=O)c1ccc(N)cc1` [Procaine HCl, Procaine hydrochloride], the “concentrations showing significant toxicity” value in the data set on Vero cells (monkey) is “above 2.0%”. The “concentrations tested at which the compound does not directly inactivate HSV-2” value in the data set on HSV-2 [1] is given as “up to 4%”. Besides, in the data set with HSV-2 [2] (MOI 3.0, 24 hours post-infection, up to stated concentration), the “concentrations unable to inhibit the replication of HSV-2” value is “up to 2%”. The “inhibition of the replication of HSV-2 / antiviral activity” value in the data set with HSV-2 [2] (concentration not given) is given as “does not”. The “concentrations exhibiting significant cytotoxicity” value in the data set on MRC-5 cells (human) was “above 0.25%”.
